Experimental data reported in US11453660B2, “Androgen receptor and glucocorticoid receptor modulators” (ONCOSTELLAE, S.L., priority 2017, dated 2022).

molecular target: T1, AR-Receptor (Homo sapiens, UniProt P10275); test: Functional Assay AR-Receptor (MDA-MB-453 cells, luciferase); type: cell-based; conditions: antagonist effect in the presence of DHT 1 nM, 24 h, luciferase luminescence, read-out: AR antag KB
T1 sequence (P10275 1-920 Q868H): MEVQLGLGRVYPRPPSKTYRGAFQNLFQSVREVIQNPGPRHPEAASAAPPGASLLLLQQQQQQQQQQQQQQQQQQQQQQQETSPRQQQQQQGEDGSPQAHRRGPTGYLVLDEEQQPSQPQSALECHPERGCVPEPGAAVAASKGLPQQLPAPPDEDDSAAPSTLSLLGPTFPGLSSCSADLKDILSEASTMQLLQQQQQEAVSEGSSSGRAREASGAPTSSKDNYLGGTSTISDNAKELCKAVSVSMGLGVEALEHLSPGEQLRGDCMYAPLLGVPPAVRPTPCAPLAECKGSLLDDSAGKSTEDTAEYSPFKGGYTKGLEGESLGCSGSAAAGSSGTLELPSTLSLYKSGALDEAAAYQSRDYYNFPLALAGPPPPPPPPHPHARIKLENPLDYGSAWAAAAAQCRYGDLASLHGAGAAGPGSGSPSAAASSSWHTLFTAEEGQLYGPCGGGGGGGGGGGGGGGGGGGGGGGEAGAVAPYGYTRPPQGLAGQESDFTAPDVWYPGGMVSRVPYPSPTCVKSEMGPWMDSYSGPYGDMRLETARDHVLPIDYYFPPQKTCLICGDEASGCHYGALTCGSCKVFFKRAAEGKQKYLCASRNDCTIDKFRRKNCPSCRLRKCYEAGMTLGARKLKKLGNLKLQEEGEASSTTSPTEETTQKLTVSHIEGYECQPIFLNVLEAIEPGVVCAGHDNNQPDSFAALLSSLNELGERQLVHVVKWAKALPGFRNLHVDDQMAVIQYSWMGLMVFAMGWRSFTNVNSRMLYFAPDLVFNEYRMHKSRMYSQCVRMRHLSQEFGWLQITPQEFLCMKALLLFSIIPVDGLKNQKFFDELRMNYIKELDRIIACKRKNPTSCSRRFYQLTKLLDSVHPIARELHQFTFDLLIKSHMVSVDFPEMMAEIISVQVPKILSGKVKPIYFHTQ
In short: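 MDA-MB-453 cells, 8000/well, were switched to medium with 0.1% FBS and exposed to compounds for 24 h at 37 °C. Antagonist mode used 1 nM DHT. After lysis and a freeze-thaw cycle, luciferase luminescence was read.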

Kb | SMILES
≥ 1000 nM | CC(=O)C1=C(C)NC(C)=C(C(=O)OC2CCCCC2)C1c1csc2ncccc12 (centres unmarked) [Example C36, Cyclohexyl 5-acetyl-2,6-dimethyl-4-(thieno[2,3-b]pyridin-3-yl)-1,4-dihydropyridine-3-carboxylate]
≥ 1000 nM | CC(=O)C1=C(C)NC(C)=C(C(=O)OCc2ccccc2)C1c1csc2ncccc12 (centres unmarked) [Example C39, Benzyl 5-acetyl-2,6-dimethyl-4-(thieno[2,3-b]pyridin-3-yl)-1,4-dihydropyridine-3-carboxylate]
< 100 nM | CC(=O)C1=C(C)NC(C)=C(C(=O)OCC2CCOCC2)C1c1csc2ccc(Cl)cc12 (centres unmarked) [Example C43, (Tetrahydro-2H-pyran-4-yl)methyl 5-acetyl-4-(5-chlorobenzo[b]thiophen-3-yl)-2,6-dimethyl-1,4-dihydropyridine-3-carboxylate]
100 to 1000 nM | CC(=O)C1=C(C)NC(C)=C(C(=O)OCC2CCOCC2)C1c1csc2ccc(F)cc12 (centres unmarked) [Example C44, (Tetrahydro-2H-pyran-4-yl)methyl 5-acetyl-4-(5-fluorobenzo[b]thiophen-3-yl)-2,6-dimethyl-1,4-dihydropyridine-3-carboxylate]
100 to 1000 nM | CC(=O)C1=C(C)NC(C)=C(C(=O)OCc2ccncc2)C1c1csc2ccc(F)cc12 (centres unmarked) [Example C46, Pyridin-4-ylmethyl 5-acetyl-4-(5-fluorobenzo[b]thiophen-3-yl)-2,6-dimethyl-1,4-dihydropyridine-3-carboxylate]
100 to 1000 nM | CC(=O)C1=C(C)NC(C)=C(C(=O)OCc2ccc(Br)cc2)C1c1csc2ncccc12 (centres unmarked) [Example C65, 4-bromobenzyl 5-acetyl-2,6-dimethyl-4-(thieno[2,3-b]pyridin-3-yl)-1,4-dihydropyridine-3-carboxylate]
≥ 1000 nM | CC(=O)C1=C(C)NC(C)=C(C(=O)OC(C)(C)c2ccccc2)C1c1csc2ncccc12 (centres unmarked) [Example C71, 2-phenylpropan-2-yl 5-acetyl-2,6-dimethyl-4-(thieno[2,3-b]pyridin-3-yl)-1,4-dihydropyridine-3-carboxylate]
≥ 1000 nM | CC(=O)C1=C(C)NC(C)=C(C(=O)OCc2cccc(C#N)c2)C1c1csc2ncccc12 (centres unmarked) [Example C72, 3-Cyanobenzyl 5-acetyl-2,6-dimethyl-4-(thieno[2,3-b]pyridin-3-yl)-1,4-dihydropyridine-3-carboxylate]
≥ 1000 nM | CC(=O)C1=C(C)NC(C)=C(C(=O)OCc2ccc(C#N)cc2)C1c1csc2ncccc12 (centres unmarked) [Example C73, 4-cyanobenzyl 5-acetyl-2,6-dimethyl-4-(thieno[2,3-b]pyridin-3-yl)-1,4-dihydropyridine-3-carboxylate]
100 to 1000 nM | COC(=O)C1=C(C=O)NC(C2CC2)=C(C(=O)OC)C1c1csc2c(C#N)cccc12 (centres unmarked) [Example C117, Dimethyl 4-(7-cyanobenzo[b]thiophen-3-yl)-2-cyclopropyl-6-formyl-1,4-dihydropyridine-3,5-dicarboxylate]
100 to 1000 nM | COC(=O)C1=C(C)NC(C=O)=C(C(=O)OC)C1c1csc2c(C#N)cccc12 (centres unmarked) [Example C119, Dimethyl 4-(7-cyanobenzo[b]thiophen-3-yl)-2-formyl-6-methyl-1,4-dihydropyridine-3,5-dicarboxylate]
100 to 1000 nM | CC1=C(C#N)C(c2csc3c(C#N)cccc23)C(C(=O)OCC2CC2)=C(N)N1 (centres unmarked) [Example D24, cyclopropylmethyl 2-amino-5-cyano-4-(7-cyanobenzo[b]thiophen-3-yl)-6-methyl-1,4-dihydropyridine-3-carboxylate]
100 to 1000 nM | CC(=O)C1=C(C)NC(N)=C(C(=O)OCC2CCCCC2)C1c1csc2c(C#N)cccc12 (centres unmarked) [Example D30, Cyclohexylmethyl 5-acetyl-2-amino-4-(7-cyanobenzo[b]thiophen-3-yl)-6-methyl-1,4-dihydropyridine-3-carboxylate]
100 to 1000 nM | CC1=C(C(=O)C2CC2)C(c2csc3c(C#N)cccc23)C(C(=O)OCC2CC2)=C(N)N1 (centres unmarked) [Example D31, Cyclopropylmethyl 2-amino-4-(7-cyanobenzo[b]thiophen-3-yl)-5-(cyclopropanecarbonyl)-6-methyl-1,4-dihydropyridine-3-carboxylate]
100 to 1000 nM | CC(=O)C1=C(C)NC(N)=C(C(=O)OCc2cccc(F)c2)C1c1csc2c(C#N)cccc12 (centres unmarked) [Example D32, 3-Fluorobenzyl 5-acetyl-2-amino-4-(7-cyanobenzo[b]thiophen-3-yl)-6-methyl-1,4-dihydropyridine-3-carboxylate]
100 to 1000 nM | CC1=C(C(=O)OC2CC2)C(c2csc3c(C#N)cccc23)C(C(=O)OCC2CC2)=C(N)N1 (centres unmarked) [Example D37, 5-Cyclopropyl 3-(cyclopropylmethyl) 2-amino-4-(7-cyanobenzo[b]thiophen-3-yl)-6-methyl-1,4-dihydropyridine-3,5-dicarboxylate]
≥ 1000 nM | COC(=O)C1=C(C)NC(N)=C(C(=O)OCC(C)(C)C)C1c1csc2c(C#N)cccc12 (centres unmarked) [Example D43, 5-Methyl 3-neopentyl 2-amino-4-(7-cyanobenzo[b]thiophen-3-yl)-6-methyl-1,4-dihydropyridine-3,5-dicarboxylate]

Second part, the molecule before the results:

SMILES | Kb
CC(=O)C1=C(C)NC(C)=C(C(=O)OCc2ccccc2)C1c1csc2ccc(F)cc12 (centres unmarked) [Example C41, Benzyl 5-acetyl-4-(5-fluorobenzo[b]thiophen-3-yl)-2,6-dimethyl-1,4-dihydropyridine-3-carboxylate] | 100 to 1000 nM
CC(=O)C1=C(C)NC(C)=C(C(=O)OCc2ccccc2)C1c1csc2ccc(Cl)cc12 (centres unmarked) [Example C42, Benzyl 5-acetyl-4-(5-chlorobenzo[b]thiophen-3-yl)-2,6-dimethyl-1,4-dihydropyridine-3-carboxylate] | < 100 nM
CC(=O)C1=C(C)NC(C)=C(C(=O)OCc2cccnc2)C1c1csc2ccccc12 (centres unmarked) [Example C48, Pyridin-3-ylmethyl 5-acetyl-4-(benzo[b]thiophen-3-yl)-2,6-dimethyl-1,4-dihydropyridine-3-carboxylate] | 100 to 1000 nM
CC(=O)C1=C(C)NC(C)=C(C(=O)OCc2cccnc2)C1c1csc2c(Br)cccc12 (centres unmarked) [Example C58, Pyridin-3-ylmethyl 5-acetyl-4-(7-bromobenzo[b]thiophen-3-yl)-2,6-dimethyl-1,4-dihydropyridine-3-carboxylate] | 100 to 1000 nM
CC(=O)C1=C(C)NC(C)=C(C(=O)OCc2cccc(Br)c2)C1c1csc2ncccc12 (centres unmarked) [Example C66, 3-bromobenzyl 5-acetyl-2,6-dimethyl-4-(thieno[2,3-b]pyridin-3-yl)-1,4-dihydropyridine-3-carboxylate] | < 100 nM
CC(=O)C1=C(C)NC(C)=C(C(=O)OCc2ccccc2Br)C1c1csc2ncccc12 (centres unmarked) [Example C67, 2-bromobenzyl 5-acetyl-2,6-dimethyl-4-(thieno[2,3-b]pyridin-3-yl)-1,4-dihydropyridine-3-carboxylate] | < 100 nM
COC(=O)C1=C(CO)NC(C2CC2)=C(C(=O)OC)C1c1csc2c(C#N)cccc12 (centres unmarked) [Example C118, Dimethyl 4-(7-cyanobenzo[b]thiophen-3-yl)-2-cyclopropyl-6-(hydroxymethyl)-1,4-dihydropyridine-3,5-dicarboxylate] | 100 to 1000 nM
COC(=O)C1=C(C)NC(N)=C(C(=O)OC2CCCC2)C1c1csc2c(C#N)cccc12 (centres unmarked) [Example D27, 3-Cyclopentyl 5-methyl 2-amino-4-(7-cyanobenzo[b]thiophen-3-yl)-6-methyl-1,4-dihydropyridine-3,5-dicarboxylate] | 100 to 1000 nM
COC(=O)C1=C(C)NC(N)=C(C(=O)OCC2CC2)C1c1csc2c(C#N)cc(F)cc12 (centres unmarked) [Example D39, 3-(Cyclopropylmethyl) 5-methyl 2-amino-4-(7-cyano-5-fluorobenzo[b]thiophen-3-yl)-6-methyl-1,4-dihydropyridine-3,5-dicarboxylate] | 100 to 1000 nM
COC(=O)C1=C(C)NC(N)=C(C(=O)OC(C)C)C1c1csc2c(C#N)cccc12 (centres unmarked) [Example D41, 3-Isopropyl 5-methyl 2-amino-4-(7-cyanobenzo[b]thiophen-3-yl)-6-methyl-1,4-dihydropyridine-3,5-dicarboxylate] | < 100 nM
CC1=C(C(=O)OCC2CC2)C(c2csc3c(C#N)cccc23)C(C(=O)OCC2CC2)=C(N)N1 (centres unmarked) [Example D46, Bis(cyclopropylmethyl) 2-amino-4-(7-cyanobenzo[b]thiophen-3-yl)-6-methyl-1,4-dihydropyridine-3,5-dicarboxylate] | ≥ 1000 nM
C#CCOC(=O)C1=C(C)NC(N)=C(C(=O)OCC2CC2)C1c1csc2c(C#N)cccc12 (centres unmarked) [Example D47, 3-(Cyclopropylmethyl) 5-(prop-2-yn-1-yl) 2-amino-4-(7-cyanobenzo[b]thiophen-3-yl)-6-methyl-1,4-dihydropyridine-3,5-dicarboxylate] | ≥ 1000 nM
